Test results reported in publication PMC9135634 (Nature chemical biology, 2022).
Values belong to the molecule of their own block, whether it stands above or below them.

Key:
HRAS WT = HRAS WT (Homo sapiens, UniProt P01112); assay: RAS BRET target engagement assay, live HEK-293 cells; type: cell-based
HRAS(G12C) = HRAS(G12C) (Homo sapiens, UniProt P01112, G12C); assay: as above
KRAS(G12C) = KRAS(G12C) (Homo sapiens, UniProt P01116, G12C); assay: as above; type: cell-based; settings: BRET competition
KRAS WT = KRAS WT (Homo sapiens, UniProt P01116); assay: RAS BRET target engagement assay; type: cell-based; settings: across all RAS variants studied
NanoBiT-KRAS WT = NanoBiT-KRAS WT (Homo sapiens, UniProt P01116); assay: NanoBiT-RAS luminescence; type: cell-based; settings: live cells; titration
KRAS(D54R) : CRAF(RBD) = KRAS(D54R) : CRAF(RBD) (Homo sapiens, UniProt P01116, D54R); assay: NanoBiT-KRAS:CRAF; type: cell-based
NanoLuc-ABL1 = NanoLuc-ABL1 (Homo sapiens, UniProt P00519); assay: NanoBRET TE Intracellular Kinase Assay, K-4; type: cell-based
Chain of NanoLuc-ABL1 (P00519 whole entry): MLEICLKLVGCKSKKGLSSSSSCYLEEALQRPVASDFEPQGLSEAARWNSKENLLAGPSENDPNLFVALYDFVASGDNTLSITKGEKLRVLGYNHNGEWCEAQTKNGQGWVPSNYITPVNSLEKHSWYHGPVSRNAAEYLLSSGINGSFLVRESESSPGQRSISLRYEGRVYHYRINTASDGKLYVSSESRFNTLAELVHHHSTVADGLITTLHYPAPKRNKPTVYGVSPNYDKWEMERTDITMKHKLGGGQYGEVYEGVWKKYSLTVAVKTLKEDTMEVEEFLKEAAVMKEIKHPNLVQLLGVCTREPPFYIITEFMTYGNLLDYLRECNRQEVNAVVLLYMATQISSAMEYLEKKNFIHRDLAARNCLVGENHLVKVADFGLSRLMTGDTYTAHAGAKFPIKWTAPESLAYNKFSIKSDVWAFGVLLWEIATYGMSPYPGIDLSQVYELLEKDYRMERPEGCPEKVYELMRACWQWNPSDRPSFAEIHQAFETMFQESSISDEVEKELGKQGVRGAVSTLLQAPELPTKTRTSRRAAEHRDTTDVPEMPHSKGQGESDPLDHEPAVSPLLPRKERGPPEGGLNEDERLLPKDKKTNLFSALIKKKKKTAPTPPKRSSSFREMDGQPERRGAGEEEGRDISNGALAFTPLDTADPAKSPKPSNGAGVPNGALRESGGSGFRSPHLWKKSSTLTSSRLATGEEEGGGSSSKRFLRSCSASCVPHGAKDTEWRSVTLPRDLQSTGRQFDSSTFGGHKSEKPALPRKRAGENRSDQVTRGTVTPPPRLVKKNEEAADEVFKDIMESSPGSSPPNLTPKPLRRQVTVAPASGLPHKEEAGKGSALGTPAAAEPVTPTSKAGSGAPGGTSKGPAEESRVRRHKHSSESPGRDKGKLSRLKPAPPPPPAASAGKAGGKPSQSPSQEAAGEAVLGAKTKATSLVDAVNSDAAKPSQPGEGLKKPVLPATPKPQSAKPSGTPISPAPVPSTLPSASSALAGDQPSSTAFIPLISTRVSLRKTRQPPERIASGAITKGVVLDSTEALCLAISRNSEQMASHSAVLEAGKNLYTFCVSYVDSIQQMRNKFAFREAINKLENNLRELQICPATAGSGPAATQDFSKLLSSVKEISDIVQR

KRAS(Y96D) = KRAS(Y96D) (Homo sapiens, UniProt P01116, Y96D); assay: RAS BRET target engagement assay, live HEK-293 cells; type: cell-based
A375 cells = assay: Anti-proliferative activity, CellTiter-Glo 2.0; type: cell-based; settings: BRAF V600E, RAS-independent
HEK-293 cells = type: cell-based; settings: RAS-independent cell line

- BRET engagement (HRAS WT): No engagement
- BRET engagement (HRAS(G12C)): showed vulnerability
Structure (SMILES): C=CC(=O)N1CCN(c2nc(=O)n(-c3c(C)ccnc3C(C)C)c3nc(-c4c(O)cccc4F)c(F)cc23)[C@@H](C)C1 [AMG510, sotorasib]

- hill coefficient (KRAS(G12C)): 1.1
Structure (SMILES): C=CC(=O)N1CCN(c2ncnc3c(F)c(-c4c(O)cccc4F)c(Cl)cc23)CC1 [ARS-1620]

Continued, molecule first:

Structure (SMILES): Cn1cnc(Cn2ccc3ccc(CNCc4[nH]c5ccccc5c4[C@H]4NC(=O)c5ccc(O)cc54)cc32)c1 [BI-2852]
- Hill coefficients, mean (KRAS WT): 1.9 ± 0.7
- Hill coefficients, range (KRAS WT): 1.3−3.3
- effect on RAS dimerization NanoBiT signal (NanoBiT-KRAS WT): did not impact
- inhibition of CRAF-RBD interaction with KRAS(D54R) dimers (KRAS(D54R) : CRAF(RBD)): unable to inhibit the interaction
- effect on BRET or luminescence in irrelevant target engagement assay (NanoLuc-ABL1): had no effect on the BRET or luminescence

Structure (SMILES): CCC(=O)N1CCN(c2nc(OC[C@@H]3CCCN3C)nc3c2CCN(c2cccc4cccc(Cl)c24)C3)C[C@@H]1CC#N [Compound 10]
- BRET engagement (KRAS(Y96D)): not observed

Structure (SMILES): C=C(F)C(=O)N1CCN(c2nc(OC[C@@H]3CCCN3C)nc3c2CCN(c2cccc4cccc(Cl)c24)C3)C[C@@H]1CC#N [MRTX849]
- BRET engagement (HRAS WT): No engagement
- anti-proliferative effect (A375 cells): the same effect
- anti-proliferative / cytotoxic effect (HEK-293 cells): the same effect
- BRET engagement (HRAS(G12C)): showed vulnerability
- affinity for HRAS(G12C) weaker than that observed for KRAS(G12C) (HRAS(G12C)): 3 orders of magnitude
